The values that follow come from patent publication US9090593B2, “Bicyclic compounds as Pim inhibitors” (AMGEN INC., priority 2010, dated 2015).

Experiment [1] has as its target T1, Pim-1 stably transfected into the U2OS human osteogenic sarcoma line (Homo sapiens, UniProt P11309).
T1 construct: expressed in transfected cells; host or cells: U2OS human osteogenic sarcoma line
Nature of the experiment: Pim cell assay, phospho-BAD normalized against total BAD, U2OS stably transfected with Pim-1. The class given is cell-based. Particulars: U2OS cells stably transfected with Pim-1, phospho-BAD; high dose […]; read-out: Pim1_Cell_IC50. The essentials:
(§1)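 Read-out is phospho-BAD relative to total BAD, by MSD electrochemiluminescence on lysates, expressed as % phosphoprotein = (2×phospho)/(phospho+total)×100. Engineered U2OS lines carrying stably transfected Pim-1 or Pim-2 received 10-point compound dilutions at 0.3% final DMSO after overnight culture at 37 °C; DMSO-only wells served as high control.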

For experiment [2], the target named is T2, Pim-2 stably transfected into the U2OS human osteogenic sarcoma line (Homo sapiens, UniProt Q9P1W9).
T2 construct: expressed in transfected cells; host or cells: U2OS human osteogenic sarcoma line
Nature of the experiment: Pim cell assay, phospho-BAD normalized against total BAD, U2OS stably transfected with Pim-2. Also: high dose 31.6 µM. The experiment is classed as cell-based. Particulars: U2OS cells stably transfected with Pim-2, phospho-BAD; high dose […]; read-out: Pim2_Cell_IC50. The procedure, abridged: as §1

Experiment [3] addresses T3, full length recombinant Pim-3 protein (Homo sapiens, UniProt Q86V86).
T3 construct: by full length recombinant Pim-1, Pim-2, or Pim-3 protein; purchased Millipore (UK)
Description: Pim-3 enzyme assay (HTRF, phosphorylation of biotinylated-BAD (S112) peptide). The experiment is classed as biochemical. Particulars: read-out: Pim3 IC50. The essentials: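 HTRF read-out, streptavidin-APC plus Eu-labelled anti-phospho-BAD (S112) antibody, measures BAD peptide phosphorylation by full-length recombinant Pim-3. Buffer: 60 mM Hepes pH 7.0, 2 mM DTT, 0.05% BSA; EDTA (3 mM) stop. Percent of control per well, IC50 by 4-parameter logistic fit.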
(In general: TR-FRET usually uses a lanthanide donor and a delayed reading to cut background.)

The target of experiment [4] is T4, full length recombinant Pim-1 protein (Homo sapiens, UniProt P11309).
T4 construct: by full length recombinant Pim-1, Pim-2, or Pim-3 protein; hexahistidine tag followed by a thrombin cleavage site (N); made in house; host or cells: Sf9 (baculovirus) or E. coli (pET28)
Nature of the experiment: Pim-1 enzyme assay (HTRF, phosphorylation of biotinylated-BAD (S112) peptide). The class given is biochemical. Particulars: enzyme assay, Pim-1; read-out: Pim_1_IC50. The procedure, abridged: (§2)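 HTRF read-out: Eu-labelled anti-phospho-BAD (S112) antibody plus streptavidin-APC detect phosphorylated biotin-BAD peptide. Enzymes were full-length recombinant human Pim-1 and Pim-2; buffer 60 mM Hepes pH 7.0, 0.05% BSA, 2 mM DTT; reactions quenched with 3 mM EDTA. Percent-of-control data fitted to a 4-parameter logistic for IC50.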

Experiment [5] addresses T5, full length recombinant Pim-2 protein (Homo sapiens, UniProt Q9P1W9).
T5 construct: by full length recombinant Pim-1, Pim-2, or Pim-3 protein; hexahistidine tag followed by a thrombin cleavage site (N); made in house; host or cells: Sf9 (baculovirus) or E. coli (pET28)
Nature of the experiment: Pim-2 enzyme assay (HTRF, phosphorylation of biotinylated-BAD (S112) peptide). The experiment is classed as biochemical. Particulars: enzyme assay, Pim-2; read-out: Pim2_IC50. The procedure, abridged: as §2

SMILES strings stand for the structures.

T5 sequence (Q9P1W9 whole entry): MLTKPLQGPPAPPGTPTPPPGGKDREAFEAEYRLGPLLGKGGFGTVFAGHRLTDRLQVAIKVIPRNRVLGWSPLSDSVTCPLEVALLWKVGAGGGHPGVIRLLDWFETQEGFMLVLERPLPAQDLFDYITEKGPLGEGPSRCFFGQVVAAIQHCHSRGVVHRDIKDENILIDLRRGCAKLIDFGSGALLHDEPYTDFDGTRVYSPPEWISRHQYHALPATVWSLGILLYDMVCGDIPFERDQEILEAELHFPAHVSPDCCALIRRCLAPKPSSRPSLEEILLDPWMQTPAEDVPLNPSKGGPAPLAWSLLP
T2 sequence (Q9P1W9 whole entry): as above
T1 sequence (P11309 whole entry): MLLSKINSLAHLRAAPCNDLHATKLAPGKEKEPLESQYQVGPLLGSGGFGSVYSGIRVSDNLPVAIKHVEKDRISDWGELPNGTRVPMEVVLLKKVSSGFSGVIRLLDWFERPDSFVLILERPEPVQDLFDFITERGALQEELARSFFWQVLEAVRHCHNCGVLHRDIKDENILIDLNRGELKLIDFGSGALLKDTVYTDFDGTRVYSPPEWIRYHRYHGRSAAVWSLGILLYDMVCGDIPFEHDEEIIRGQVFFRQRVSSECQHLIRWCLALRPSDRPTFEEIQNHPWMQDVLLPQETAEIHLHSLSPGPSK
T4 sequence (P11309 whole entry): as above

Take `NC1CCN(c2cncc(-c3n[nH]c4ccc(-c5ccccc5F)cc34)n2)CC1` [Example 67, 1-(6-(5-(2-fluorophenyl)-1H-indazol-3-yl)-2-pyrazinyl)-4-piperidinamine]: the IC50 amounted to 380 nM in experiment [1]; 15 µM in experiment [2]; 1 nM in experiment [3]; 2 nM in experiment [4]; 10 nM in experiment [5].

`C[C@H]1CCNC[C@H]1Oc1cncc(-c2n[nH]c3ccc(-c4c(F)cccc4F)cc23)n1` [Example 199, 5-(2,6-difluorophenyl)-3-(6-(((3S,4S)-4-methyl-3-piperidinyl)oxy)-2-pyrazinyl)-1H-indazole]: the IC50 amounted to 400 nM in experiment [1]; 3.41 µM in experiment [2]; 4 nM in experiment [3]; 5 nM in experiment [4]; 16 nM in experiment [5].

As to `COc1cc(-c2ccc3[nH]nc(-c4cncc(N5CCC(N)CC5)n4)c3c2)nc(OC)n1` [Example 9, 1-(6-(5-(2,6-dimethoxypyrimidin-4-yl)-1H-indazol-3-yl)pyrazin-2-yl)piperidin-4-amine], the IC50 in experiment [1] was 437 nM; in experiment [2], over 31.6 µM; in experiment [3], 1 nM; in experiment [4], 4 nM; in experiment [5] it was 96 nM.

On to `CC(C)NC(=O)c1ccc(F)c(-c2ccc3[nH]nc(-c4cncc(O[C@@H]5CCCNC5)n4)c3c2)c1` [Example 122, 4-fluoro-N-(1-methylethyl)-3-(3-(6-((3R)-3-piperidinyloxy)-2-pyrazinyl)-1H-indazol-5-yl)benzamide], for which the IC50 in experiment [1] was 287 nM; in experiment [2] it was 1.85 µM; in experiment [3], 20 nM; in experiment [4], 16 nM; in experiment [5] it was 14 nM.

Turning to `c1cc2[nH]nc(-c3cncc(O[C@@H]4CCCNC4)n3)c2cc1-c1cncc(NC2CC2)n1` [Example 158, N-cyclopropyl-6-(3-(6-((3R)-3-piperidinyloxy)-2-pyrazinyl)-1H-indazol-5-yl)-2-pyrazinamine], the IC50 in experiment [1] was 36 nM; in experiment [2], over 15.8 µM; in experiment [3] it was 1 nM; in experiment [4], 1 nM; in experiment [5] it was 121 nM.

Turning to `NC1CCN(c2nccc(-c3n[nH]c4ccc(-c5c(F)cccc5F)cc34)n2)CC1` [Example 194, 1-(4-(5-(2,6-difluorophenyl)-1H-indazol-3-yl)-2-pyrimidinyl)-4-piperidinamine], the IC50 in experiment [1] was 561 nM; in experiment [2] it was over 31.6 µM; in experiment [3], 3 nM; in experiment [4], 2 nM; in experiment [5] it was 52 nM.

As to `NC1CCN(c2cncc(-c3n[nH]c4ccc(-c5cncnc5)cc34)n2)CC1` [Example 87, 1-(6-(5-(5-pyrimidinyl)-1H-indazol-3-yl)-2-pyrazinyl)-4-piperidinamine], the IC50 in experiment [1] was 569 nM; in experiment [2], over 31.6 µM; in experiment [3], 5 nM; in experiment [4], 12 nM; in experiment [5], 43 nM.

Regarding `NC1CCN(c2cncc(-c3n[nH]c4ccc(-c5ccnc(N6CCOCC6)n5)cc34)n2)CC1` [Example 98, 1-(6-(5-(2-(4-morpholinyl)-4-pyrimidinyl)-1H-indazol-3-yl)-2-pyrazinyl)-4-piperidinamine], the IC50 is over 31.6 µM in experiment [2], 2 nM in experiment [3], 1 nM in experiment [4] and 72 nM in experiment [5].

With `c1cc2[nH]nc(-c3cncc(O[C@@H]4CCCNC4)n3)c2cc1-c1cncc(C2CC2)n1` [Example 118, 5-(6-cyclopropyl-2-pyrazinyl)-3-(6-((3R)-3-piperidinyloxy)-2-pyrazinyl)-1H-indazole], the IC50 in experiment [1] turned out to be 41 nM; in experiment [2], 5.75 µM; in experiment [3] it was 1 nM; in experiment [5], 24 nM.
